This experiment deals with MKN-45-luc. In words: Abdominal cavity metastasis model of gastric cancer. As to conditions: single dose of 1.5 mg/kg i.p., Day 0; FIG. 3. The class given is in vivo, NCG mice. The method, then:
To study whether EpCAM-CAR-T (the amino acid sequence of the chimeric antigen receptor of EpCAM-CAR-T is set forth in SEQ ID NO: 16) can clear abdominal metastatic tumors of gastric cancer and whether the chemotherapeutic drug docetaxel can enhance the efficacy of CAR-T, we constructed an abdominal cavity metastasis model of gastric cancer based on a gastric cancer cell line MKN-45-luc. Modeling: human gastric cancer cells MKN-45-luc were cultured in an RPMI-1640 culture medium with 10% FBS in an incubator at 37° C. with 5% CO2. Before continuous cell culturing for ten generations, the cells were inoculated into the abdominal cavity of mice, about 1.5×10^6 MKN-45-luc cells were resuspended in PBS, and inoculated into NCG mice by intraperitoneal injection in a volume of […]. Grouping and administration: 7 days after the inoculation, the growth of tumor cells in the abdominal cavity was detected using a small animal in vivo imaging fluorometer. The mice were randomly grouped according to the body weight and tumor size (fluorescence intensity), with 5 animals in each group, for a total of 6 groups. The day of grouping was defined as day 0.

Here are results for one compound from patent US20260083843A1, “IMMUNE CELLS TARGETING EPCAM AND MEDICAL USE THEREOF” (SUZHOU IMMUNOFOCO BIOTECHNOLOGY CO., LTD, priority 2022, published 2026).

With `CC(=O)O[C@@]12CO[C@@H]1C[C@H](O)[C@@]1(C)C(=O)[C@H](O)C3=C(C)[C@@H](OC(=O)[C@H](O)[C@@H](NC(=O)OC(C)(C)C)c4ccccc4)C[C@@](O)([C@@H](OC(=O)c4ccccc4)[C@H]21)C3(C)C` [docetaxel], the efficacy entry is “did not produce significant efficacy”.
